Values quoted from earlier work as cited in patent US20250176603A1, “Vegetable-Based Food Product” (L-CONE SP. Z O. O., priority 2023, published 2025).
Entries after “also recorded” stand apart in the source; their conditions may differ.

How the values were obtained:
[1] = system: diethylnitrosamine-induced hepatocarcinogenesis; conditions: rats
[2] = system: lipopolysaccharide (LPS)-activated BV2 microglia
[3] = in vivo
Ehrlich ascites tumor = conditions: mice
[4] = system: prostate cancer patients undergoing radiotherapy
[5] = system: pancreatic cancer patients resistant to gemcitabine chemotherapy; conditions: 8 g/day in a divided dose for 11 months
TPOAb antibody = conditions: 200 ug for 3 months
[6] = system: acetic acid-induced ulcerative colitis; conditions: oral administration
DSS-induced colitis = DSS-induced colitis model

C=CCC(=NOS(=O)(=O)O)S[C@@H]1O[C@H](CO)[C@@H](O)[C@H](O)[C@H]1O (stereo in doubt) [Sinigrin]
diethylnitrosamine-induced hepatocarcinogenesis [1]: inhibited

O=CC=Cc1ccccc1 [Cinnamaldehyde]
production and expression of NO, IL-1b, IL-6 and TNF-a [2]: decrease
tau protein aggregation (tau protein): potential in inhibiting

C[S+]([O-])CCCCN=C=S (centres unmarked) [Sulforaphane]
level of bioavailability [3]: 74%

C=CCN=C=S [allyl isothiocyanate]
cytotoxic effect (lung cancer cells): cytotoxic effect
Ehrlich ascites tumor growth (Ehrlich ascites tumor): inhibited
cytotoxic effect (bladder): cytotoxic effect

COc1cc(/C=C/C(=O)CC(=O)/C=C/c2ccc(O)c(OC)c2)ccc1O [curcumin]
radiation side effects and therapeutic efficacy [4]: alleviate the side effects of radiation and enhance its therapeutic efficacy; also recorded: mitigate radiation side effects and enhance therapeutic efficacy
chances of longer survival [5]: significantly increased; also recorded: increased significantly

O=C(/C=C/C=C/c1ccc2c(c1)OCO2)N1CCCCC1 [piperine]
cytotoxic effects (K-562 cells): strong cytotoxic effects

C[Se]CC[C@H](N)C(=O)O [selenomethionine]
TPOAb antibody levels (TPOAb antibody): significantly reduced

COc1cc(C2Oc3cc([C@H]4Oc5cc(O)cc(O)c5C(=O)[C@@H]4O)ccc3OC2CO)ccc1O (some centres unmarked) [silybin]
IL-6 and TNF-α activity [6]: significant reduction

O=[Se](=O)(O)O [sodium selenate]
TPOAb antibody levels (TPOAb antibody): significantly reduced

O=C1c2c(O)cc(O)cc2O[C@H](c2ccc(O)c(O)c2)[C@H]1O [taxifolin]
NF-κB activation (DSS-induced colitis): reduce
